# Data from patent publication US10034886B2, “GLP-1 receptor modulators” (Celgene International II SÀRL, priority 2014, dated 2018).
# Biological target: T1, GLP-1R (Homo sapiens, UniProt P43220)
# T1 construct: host or cells: GLP-1R CRE-bla CHO-K1 cells
# Experiment: EC20 GLP-1(9-36) PAM cAMP assay: dose response of compound in the presence of fixed concentration of GLP-1(9-36)
# Type: cell-based
# Settings: GLP-1R CRE-bla CHO-K1 cells, compound dose response with fixed concentration of GLP-1(9-36), read-out: EC20 GLP-1(9-36) PAM EC50
# How it was run: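 Positive allosteric modulation read as cAMP accumulation: compound titrations (12 points) combined with an EC20 level of GLP-1(9-36) on CHO-K1 GLP-1R CRE-bla cells, IBMX present, 30 min, 37 °C, pH 7.4 buffer. Luminescence converted to cAMP via standards; non-linear fit gave EC50 and Emax.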
# T1 sequence (P43220 24-463): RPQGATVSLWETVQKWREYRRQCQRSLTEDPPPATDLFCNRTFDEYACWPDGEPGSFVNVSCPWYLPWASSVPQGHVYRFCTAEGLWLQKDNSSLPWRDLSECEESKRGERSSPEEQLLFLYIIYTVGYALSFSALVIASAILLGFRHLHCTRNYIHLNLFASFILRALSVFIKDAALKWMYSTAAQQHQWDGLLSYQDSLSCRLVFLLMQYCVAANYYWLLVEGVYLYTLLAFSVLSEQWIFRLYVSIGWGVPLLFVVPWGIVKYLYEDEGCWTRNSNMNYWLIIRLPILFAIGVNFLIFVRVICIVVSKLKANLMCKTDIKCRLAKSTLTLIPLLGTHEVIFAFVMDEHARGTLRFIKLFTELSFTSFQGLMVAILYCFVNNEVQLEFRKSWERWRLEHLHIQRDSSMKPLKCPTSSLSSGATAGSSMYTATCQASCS
# T1 sequence (P01275 100-127 partner limits assumed): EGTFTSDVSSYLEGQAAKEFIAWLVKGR
row,EC50 [nM],SMILES
1,< 800,CCC[C@H]1CC[C@H](C2CCN(c3cnc(-c4ccc(C[C@H](NC(=O)c5cc6cc(OC)ccc6[nH]5)C(=O)N5CC(C(=O)O)C5)cc4)nc3)CC2)CC1 [Compound 1525]
2,800 to 2500,CCc1ccc(C(=O)N[C@@H](Cc2ccc(-c3ncc(-c4ccc([C@H]5CC[C@H](CC)CC5)cc4)cn3)cc2)C(=O)N2CC(C(=O)O)C2)nc1 [Compound 1342]
3,< 800,Cc1ccc(-c2ccc(-c3cnc(-c4ccc(C[C@H](NC(=O)c5ccc(C(C)(C)C)s5)C(=O)N[C@H](C)C(=O)O)cc4)nc3)cc2)cc1 [Compound 1283]
4,< 800,CCC[C@H]1CC[C@H](C2CCN(c3cnc(-c4ccc(C[C@H](NC(=O)c5ccc(C(C)(C)C)s5)C(=O)N[C@H](CCC(N)=O)C(=O)O)cc4)nc3)CC2)CC1 [Compound 1445]
5,< 800,CCCc1ccc(C(=O)N[C@@H](Cc2ccc(-c3ncc(N4CCC([C@H]5CC[C@H](CCC)CC5)CC4)cn3)cc2)C(=O)N2CC(C(=O)O)C2)cc1 [Compound 1521]
6,800 to 2500,CCCc1ccc(N2CCN(c3cnc(-c4ccc(CC(NC(=O)c5ccc(C(C)(C)C)s5)C(=O)N5CC(C(=O)O)C5)cc4)nc3)C(=O)C2)cc1 (racemic) [Compound 1411]
7,800 to 2500,C[C@@H](NC(=O)[C@H](Cc1ccc(-c2ncc(C#Cc3ccc(F)cc3)cn2)cc1)NC(=O)c1ccc(C(C)(C)C)s1)C(=O)O [Compound 1275]
8,5000 to 10000,CCOc1ccc(-c2cnc(-c3ccc(C[C@H](NC(=O)c4ccc(C(C)(C)C)s4)C(=O)O)cc3)nc2)cc1 [Compound 1349]
9,< 800,CCCc1ccc(-c2ccc(-c3cnc(-c4ccc(C[C@H](NC(=O)c5ccc(C(C)C)cc5)C(=O)N5CC(C(=O)O)C5)cc4)nc3)c(F)c2)cc1 [Compound 1408]
10,800 to 2500,CC[C@H]1CC[C@H](c2ccc(-c3cnc(-c4ccc(C[C@H](NC(=O)c5ccc(C(F)(F)F)nc5)C(=O)O)cc4)nc3)cc2)CC1 [Compound 1388]
11,< 800,CC(C)(C)c1ccc(C(=O)N[C@@H](Cc2ccc(-c3ncc(-c4ccc(-c5ccc(C6CC6)cc5)cc4F)cn3)cc2)C(=O)N2CC(C(=O)O)C2)s1 [Compound 1209]
12,800 to 2500,CCCCc1ccc(/C=C/c2cnc(-c3ccc(C[C@H](NC(=O)c4ccc(C(C)(C)C)s4)C(=O)N[C@H](C)C(=O)O)cc3)nc2)cc1 [Compound 1262]
13,800 to 2500,C[C@@H](NC(=O)[C@H](Cc1ccc(-c2ncc(/C=C/c3ccc(C(F)(F)F)cc3)cn2)cc1)NC(=O)c1ccc(C(C)(C)C)s1)C(=O)O [Compound 1252]

# Same assay, conditions: dose response of compound in presence of fixed concentration of GLP-1(9-36), GLP-1R CRE-bla CHO-K1 cells, read-out: EC20 GLP-1(9-36) PAM EC50
row,EC50 [nM],SMILES
1,2500 to 5000,CCCOc1ccc(-c2cnc(-c3ccc(C[C@H](NC(=O)c4ccc(C(C)(C)C)s4)C(=O)N4CC(C(=O)O)C4)cc3)nc2)cc1 [Compound 785]
2,< 800,CC[C@H]1CC[C@H](c2ccc(-c3cnc(-c4ccc(C[C@H](NC(=O)c5ccc(C(C)C)cc5)C(=O)N5CC(C(=O)O)C5)cc4)nc3)cc2)CC1 [Compound 1169]
3,800 to 2500,CCCCCCCOc1ccc(-c2cnc(-c3ccc(C[C@H](NC(=O)c4ccc(C(C)(C)C)cc4)C(=O)N[C@@H](CC(=O)O)C(=O)N(C)C)cc3)nc2)cc1 [Compound 503]
4,800 to 2500,CCCCCCCOc1ccc(-c2cnc(-c3ccc(C[C@H](NC(=O)c4ccc(OCCC)cc4)C(=O)N4CC[C@H](C(=O)O)C4)cc3)nc2)cc1 [Compound 1097]
5,800 to 2500,CCCCCCCOc1ccc(-c2cnc(-c3ccc(C[C@H](NC(=O)c4ccc5c(c4)OCCO5)C(=O)N[C@H](C)C(=O)O)cc3)nc2)cc1 [Compound 980]
6,2500 to 5000,CC(C)(C)c1ccc(C(=O)N[C@@H](Cc2ccc(-c3ncc(-c4ccc(OC(F)=C(F)F)cc4)cn3)cc2)C(=O)NCCC(=O)O)cc1 [Compound 691]
7,2500 to 5000,CC(C)Oc1ccc(-c2cnc(-c3ccc(C[C@H](NC(=O)c4ccc(C(C)(C)C)cc4)C(=O)NCCC(=O)O)cc3)nc2)cc1 [Compound 695]
8,< 800,CC1CCC(c2ccc(-c3cnc(-c4ccc(C[C@H](NC(=O)c5ccc(C(C)(C)C)s5)C(=O)N[C@H](C)C(=O)O)cc4)nc3)cc2)CC1 (stereo partly drawn) [Compound 1145]
9,< 800,CCCCCCCOc1ccc(-c2cnc(-c3ccc(C[C@H](NC(=O)c4ccc(C(C)(C)C)s4)C(=O)NC(C(=O)O)c4ccco4)cc3)nc2)cc1 (stereo partly drawn) [Compound 412]
10,5000 to 10000,C[C@@H](NC(=O)[C@H](Cc1ccc(-c2ncc(-c3ccc(Oc4ccccc4)cc3)cn2)cc1)NC(=O)c1ccc(C(C)(C)C)s1)C(=O)O [Compound 1000]
11,800 to 2500,"CCCCCCCOc1ccc(-c2cnc(-c3ccc(C[C@@H](NC(=O)c4ccc(C(C)(C)C)cc4)C(=O)O)cc3)nc2)cc1 [Compound 191, (R)-2-(4-(tert-butyl)benzamido)-3-(4-(5-(4-(heptyloxy)phenyl)pyrimidin-2-yl)phenyl)propanoic acid]"
12,2500 to 5000,CCCCCCCOc1ccc(-c2cnc(-c3ccc(C[C@H](NC(=O)c4ccc(C(C)(C)C)s4)C(=O)NC(C(=O)O)C(O)C4CCCCC4)cc3)nc2)cc1 (stereo partly drawn) [Compound 914]
13,800 to 2500,CCCCCCCOc1ccc(-c2cnc(-c3ccc(C[C@H](NC(=O)c4cnc(C(C)(C)C)nc4)C(=O)N4CC(C(=O)O)C4)cc3)nc2)cc1 [Compound 1118]
14,< 800,CCCCCCCOc1ccc(-c2cnc(-c3ccc(C[C@H](NC(=O)c4ccc(C(C)(C)C)s4)C(=O)N4CC(C(=O)O)C4)cc3)nc2)cc1C [Compound 776]
15,2500 to 5000,C=CCCOc1ccc(-c2cnc(-c3ccc(C[C@H](NC(=O)c4ccc(C(C)(C)C)cc4)C(=O)NCCC(=O)O)cc3)nc2)cc1 [Compound 694]
16,800 to 2500,CCCCCCCOc1ccc(-c2cnc(-c3ccc(C[C@H](NC(=O)c4ccc(C(C)(C)C)s4)C(=O)N4CC5(CC(C(=O)O)C5)C4)cc3)nc2)cc1 [Compound 877]
17,800 to 2500,CCCCCCCOc1ccc(-c2cnc(-c3ccc(C[C@H](NC(=O)c4ccc(C(C)(C)C)cc4)C(=O)N[C@@H](CC(=O)NS(C)(=O)=O)C(=O)O)cc3)nc2)cc1 [Compound 511]
18,< 800,CCCCCCCOc1ccc(-c2cnc(-c3ccc(C[C@H](NC(=O)c4ccc(C(C)(C)C)s4)C(=O)NC(COC)C(=O)O)cc3)nc2)cc1 (stereo partly drawn) [Compound 595]
19,800 to 2500,CCCCCCCOc1ccc(-c2cnc(-c3ccc(C[C@H](NC(=O)c4ccc(C(C)(C)C)s4)C(=O)NC(C(=O)O)C(O)C4CCCO4)cc3)nc2)cc1 (stereo partly drawn) [Compound 916]

row,EC50 [nM],SMILES
1,< 800,CCCCCCCOc1ccc(-c2cnc(-c3ccc(C[C@H](NC(=O)c4ccc(C(C)(C)C)cc4)C(=O)N[C@@H](CC(=O)O)C(N)=O)cc3)nc2)cc1 [Compound 579]
2,< 800,CC(C)(C)c1ccc(C(=O)N[C@@H](Cc2ccc(-c3ncc(-c4ccc(C5CCC(F)(F)CC5)cc4)cn3)cc2)C(=O)N2CC(C(=O)O)C2)s1 [Compound 1183]
3,< 800,CC(C)CCCCOc1ccc(-c2cnc(-c3ccc(C[C@H](NC(=O)c4ccc(C(C)(C)C)s4)C(=O)N4CC[C@H](C(=O)O)C4)cc3)nc2)cc1 [Compound 772]
4,800 to 2500,CCCCCCCOc1ccc(-c2cnc(-c3ccc(C[C@H](NC(=O)c4ccc(C(C)(C)C)s4)C(=O)NC(C(=O)O)C(O)C4CC4)cc3)nc2)cc1 (stereo partly drawn) [Compound 908]
5,800 to 2500,Cc1cc(C)n(-c2ccc(-c3cnc(-c4ccc(C[C@H](NC(=O)c5ccc(C(C)(C)C)s5)C(=O)N[C@H](C)C(=O)O)cc4)nc3)cc2)n1 [Compound 1006]
6,< 800,CCCCCCCOc1ccc(-c2cnc(-c3ccc(C[C@H](NC(=O)c4ccc(C(C)(C)C)cc4)C(=O)N[C@@H](CC(=O)O)C(=O)NC)cc3)nc2)cc1 [Compound 580]
7,5000 to 10000,C[C@@H](NC(=O)[C@H](Cc1ccc(-c2ncc(-c3ccc(OC(F)(F)F)c(OCC4CC4)c3)cn2)cc1)NC(=O)c1ccc(C(C)(C)C)s1)C(=O)O [Compound 1027]
8,5000 to 10000,CCCOc1ccc(-c2cnc(-c3ccc(C[C@H](NC(=O)c4ccc(C(C)(C)C)s4)C(=O)NC(C(=O)O)C(O)c4ccccc4)cc3)nc2)cc1 (stereo partly drawn) [Compound 933]
9,2500 to 5000,CCCCCCCOc1ccc(-c2cnc(-c3ccc(C[C@H](NC(=O)Cc4ccc(OCCCC)cc4)C(=O)N[C@H](C)C(=O)O)cc3)nc2)cc1 [Compound 979]
10,800 to 2500,CCCCCCCOc1ccc(-c2cnc(-c3ccc(C[C@H](NC(=O)c4ccc(N5CCCC5)cc4)C(=O)N[C@@H](C)C(=O)O)cc3)nc2)cc1 [Compound 870]
11,800 to 2500,C[C@@H](NC(=O)[C@H](Cc1ccc(-c2ncc(-c3ccc(OCC(C)(C)C)cc3)cn2)cc1)NC(=O)c1ccc(C(C)(C)C)cc1)C(=O)O [Compound 726]
12,2500 to 5000,CCCCCCCOc1ccc(-c2cnc(-c3ccc(C[C@H](NC(=O)c4ccc(CC(C)C)cc4)C(=O)N4CCC[C@H]4C(=O)O)cc3)nc2)cc1 [Compound 1076]
13,800 to 2500,CCCCCCCOc1ccc(-c2cnc(-c3ccc(C[C@H](NC(=O)c4ccc(C(C)(C)C)cc4)C(=O)N[C@@H](CCN)C(=O)O)cc3)nc2)cc1 [Compound 475]
14,< 800,Cc1cc(-c2cnc(-c3ccc(C[C@H](NC(=O)c4ccc(C(C)(C)C)s4)C(=O)N4CC[C@H](C(=O)O)C4)cc3)nc2)ccc1OC(C)C [Compound 1087]
15,800 to 2500,CCCCCCCOc1ccc(-c2ncc(-c3ccc(C[C@H](NC(=O)c4ccc(C(C)(C)C)cc4)C(=O)O)cc3)nn2)cc1 [Compound 275]
16,< 800,CCCCCCCOc1ccc(-c2cnc(-c3ccc(C[C@H](NC(=O)c4ccc(C(C)(C)C)cc4)C(=O)NCC(=O)NCC(=O)O)cc3)nc2)cc1 [Compound 444]
17,2500 to 5000,CC(C)c1ccc(-c2cnc(-c3ccc(C[C@H](NC(=O)c4ccc(C(C)(C)C)s4)C(=O)N[C@H](C)C(=O)O)cc3)nc2)cc1 [Compound 1034]
18,5000 to 10000,CCCCCCCOc1ccc(-c2cnc(-c3ccc(C[C@H](NC(=O)c4ccc(C(C)(C)C)s4)C(=O)N4CCC(NC)CC4)cc3)nc2)cc1 [Compound 464]
19,< 800,CCCCCC(=O)c1ccc(-c2cnc(-c3ccc(C[C@H](NC(=O)c4ccc(C(C)(C)C)s4)C(=O)N[C@H](C)C(=O)O)cc3)nc2)cc1 [Compound 738]
